Test results from patent US10508120B2, “TYK2 inhibitors and uses thereof” (Nimbus Lakshmi, Inc., priority 2017, dated 2019).

Assays:
[1] = molecular target: human TYK2 (JH2domain-pseudokinase) (Homo sapiens (Human), UniProt P29597); assay: TYK2 JH2 Domain Binding Assay (KINOMEscan)
Method in brief: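 Competition binding of an NFkB-DBD fusion of human TYK2 JH2 (G556–D888), expressed in HEK293 and used as crude extract at <0.1 nM, against immobilized ligand beads; 1 h at room temperature in PBS/Tween/DTT/BSA buffer, 0.9% DMSO.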

Tyk2 kinase domain (DH1) = Tyk2 kinase domain (DH1) (Homo sapiens (Human), UniProt P29597); assay: Tyk2 Radioactive Kinase Assay; type: biochemical; settings: compound at 10 μM, ATP 10 μM; for inhibition at 10 µM: read-out: Tyk2 JH1% Inhibition @ 10 μM
Method in brief: (§1)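 Read-out is percent inhibition from a radioactive kinase reaction, measured with compound at 10 μM.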

JAK2 kinase domain (JH1) = JAK2 kinase domain (JH1) (Homo sapiens (Human), UniProt O60674); assay: JAK2 Radioactive Kinase Assay; type: biochemical; settings: compound at 10 μM, ATP 10 μM; for inhibition at 10 µM: read-out: JAK2 JH1% Inhibition @ 10 μM
Method in brief: as §1

JAK2 kinase domain (JH1), sequence (O60674 849-1124): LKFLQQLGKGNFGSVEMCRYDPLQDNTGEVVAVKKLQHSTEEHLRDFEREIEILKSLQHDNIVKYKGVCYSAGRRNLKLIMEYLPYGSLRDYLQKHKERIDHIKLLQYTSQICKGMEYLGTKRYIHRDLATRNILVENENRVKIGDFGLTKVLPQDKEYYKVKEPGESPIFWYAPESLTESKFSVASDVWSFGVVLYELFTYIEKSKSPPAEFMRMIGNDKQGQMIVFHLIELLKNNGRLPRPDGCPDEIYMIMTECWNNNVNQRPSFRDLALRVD
human TYK2 (JH2domain-pseudokinase), sequence (P29597 556-888): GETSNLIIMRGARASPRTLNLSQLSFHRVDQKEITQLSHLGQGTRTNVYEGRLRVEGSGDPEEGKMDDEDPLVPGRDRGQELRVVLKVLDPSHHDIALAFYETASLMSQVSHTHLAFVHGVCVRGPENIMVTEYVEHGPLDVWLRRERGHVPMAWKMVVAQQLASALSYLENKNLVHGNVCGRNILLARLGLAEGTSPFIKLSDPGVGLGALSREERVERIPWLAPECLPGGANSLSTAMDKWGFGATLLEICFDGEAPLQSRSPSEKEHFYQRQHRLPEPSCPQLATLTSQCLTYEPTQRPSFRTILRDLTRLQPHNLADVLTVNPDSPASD
Tyk2 kinase domain (DH1), sequence (P29597 897-1176): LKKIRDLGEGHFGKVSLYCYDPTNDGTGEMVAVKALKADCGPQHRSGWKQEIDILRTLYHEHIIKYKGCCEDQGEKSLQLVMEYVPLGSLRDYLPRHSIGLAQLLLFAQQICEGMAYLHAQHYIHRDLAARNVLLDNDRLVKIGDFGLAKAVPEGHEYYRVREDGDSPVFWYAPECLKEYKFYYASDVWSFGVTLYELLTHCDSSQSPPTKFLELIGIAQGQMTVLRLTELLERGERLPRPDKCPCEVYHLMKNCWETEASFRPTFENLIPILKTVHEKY

| Compound | Kd [1] [nM] | inhibition at 10 µM (Tyk2 kinase domain (DH1)) [%] | inhibition at 10 µM (JAK2 kinase domain (JH1)) [%] | Tyk2 JH1% Inhibition @ 10 μM (Tyk2 kinase domain (DH1)) | JAK2 JH1% Inhibition @ 10 μM (JAK2 kinase domain (JH1)) |
| --- | --- | --- | --- | --- | --- |
| CNc1cc(Nc2cccc(N3CCCC3)n2)nc2c(C(=O)N[C@H]3C[C@H]3F)cnn12 [I-383] | 0.2 to 1 | < 50 | < 50 |  |  |
| COc1ncccc1Nc1cc(NCCN2CCOCC2)n2ncc(C(=O)NC3CC3)c2n1 [I-387, N-cyclopropyl-5-((2-methoxypyridin-3-yl)amino)-7-((2-morpholinoethyl)amino)pyrazolo[1,5-a]pyrimidine-3-carboxamide] | 1 to 10 | < 50 | < 50 |  |  |
| CNc1cc(Nc2cccn(-c3ccc(C4CCN(C)CC4)cc3)c2=O)nc2c(C(=O)N[C@H]3C[C@H]3F)cnn12 [I-389] | < 0.2 | < 50 | < 50 |  |  |
| CNc1cc(Nc2cccnc2OC2CC2)nc2c(C(=O)N[C@@H]3CC[C@H]3O)cnn12 [I-398] | 0.2 to 1 | < 50 | < 50 |  |  |
| CNc1cc(Nc2cccn(C[C@H]3CCCCO3)c2=O)nc2c(C(=O)NC3CC3)cnn12 [I-412] | 0.2 to 1 | < 50 | < 50 |  |  |
| CNc1cc(Nc2cccn([C@H]3CC[C@@](C)(O)CC3)c2=O)nc2c(C(=O)NC3CC3)cnn12 [I-414] | 0.2 to 1 | < 50 | < 50 |  |  |
| CNc1cc(Nc2cc(F)cn(-c3nn(C)cc3C)c2=O)nc2c(C(=O)N[C@@H]3C[C@@H]3F)cnn12 [I-416] | > 10 | < 50 | < 50 |  |  |
| CNc1cc(Nc2cccnc2OC)nc2c(C(=O)NCCC3CCCO3)cnn12 (stereo not drawn) [I-418, 5-((2-methoxypyridin-3-yl)amino)-7-(methylamino)-N-(2-(tetrahydrofuran-2-yl)ethyl)pyrazolo[1,5-a]pyrimidine-3-carboxamide] | 1 to 10 | < 50 | < 50 |  |  |
| [2H]C([2H])([2H])Oc1ncccc1Nc1cc(NC)n2ncc(C(=O)NCCC3CCCO3)c2n1 (stereo not drawn) [I-419, 5-((2-(methoxy-d3)pyridin-3-yl)amino)-7-(methylamino)-N-(2-(tetrahydrofuran-2-yl)ethyl)pyrazolo[1,5-a]pyrimidine-3-carboxamide] | 1 to 10 | < 50 | < 50 |  |  |
| CNc1cc(Nc2cccnc2OC)nc2c(C(=O)NCCC(C)(C)O)cnn12 [I-420, N-(3-hydroxy-3-methylbutyl)-5-((2-methoxypyridin-3-yl)amino)-7-(methylamino)pyrazolo[1,5-a]pyrimidine-3-carboxamide] | 0.2 to 1 | < 50 | < 50 |  |  |
| [2H]C([2H])([2H])Oc1ncccc1Nc1cc(NC)n2ncc(C(=O)NCCC(C)(C)O)c2n1 [I-421, N-(3-hydroxy-3-methylbutyl)-5-((2-(methoxy-d3)pyridin-3-yl)amino)-7-(methylamino)pyrazolo[1,5-a]pyrimidine-3-carboxamide] | 0.2 to 1 | < 50 | < 50 |  |  |
| CNc1cc(Nc2cccn(C[C@H]3CCCCO3)c2=O)nc2c(C(=O)N[C@@H]3C[C@@H]3F)cnn12 [I-427] | 0.2 to 1 | < 50 | < 50 |  |  |
| CNc1cc(Nc2cccc(C3CCCCO3)n2)nc2c(C(=O)NC3CC3)cnn12 (stereo not drawn) [I-432, N-cyclopropyl-7-(methylamino)-5-((6-(tetrahydro-2H-pyran-2-yl)pyridin-2-yl)amino)pyrazolo[1,5-a]pyrimidine-3-carboxamide] | < 0.2 | < 50 | < 50 |  |  |
| CNc1cc(Nc2cccnc2OC)nc2c(C(=O)NCC(C)CO)cnn12 (stereo not drawn) [I-434, N-(3-hydroxy-2-methylpropyl)-5-((2-methoxypyridin-3-yl)amino)-7-(methylamino)pyrazolo[1,5-a]pyrimidine-3-carboxamide] | < 0.2 | < 50 | < 50 |  |  |
| CNc1cc(Nc2cccn([C@H]3CCC[C@@H]3OC)c2=O)nc2c(C(=O)NC3CC3)cnn12 [I-437] | 0.2 to 1 |  |  | A (percent inhibition at 10 μM lower than 50) | A (percent inhibition at 10 μM lower than 50) |
| CNc1cc(Nc2cccnc2OC2CC2)nc2c(C(=O)N[C@H]3C[C@@H]3O)cnn12 [I-439, 5-((2-cyclopropoxypyridin-3-yl)amino)-N-((1S,2S)-2-hydroxycyclopropyl)-7-(methylamino)pyrazolo[1,5-a]pyrimidine-3-carboxamide] | 0.2 to 1 | < 50 | < 50 |  |  |
| CNc1cc(-c2nn(C3CCOCC3)c3ncccc23)nc2c(C(=O)NC3CC3)cnn12 [I-441] | 0.2 to 1 | < 50 | < 50 |  |  |
| CNc1cc(Nc2cccn([C@H]3CCC[C@@H]3OC)c2=O)nc2c(C(=O)N[C@@H]3C[C@@H]3F)cnn12 [I-442] | 0.2 to 1 | < 50 | < 50 |  |  |
| CNc1cc(Nc2cccnc2OC)nc2c(C(=O)N[C@H]3[C@@H]4COC[C@@H]43)cnn12 [I-445, N-((1R,5S,6r)-3-oxabicyclo[3.1.0]hexan-6-yl)-5-((2-methoxypyridin-3-yl)amino)-7-(methylamino)pyrazolo[1,5-a]pyrimidine-3-carboxamide] | 0.2 to 1 | < 50 | < 50 |  |  |
| [2H]C([2H])([2H])Oc1ncccc1Nc1cc(NC)n2ncc(C(=O)NC3[C@H]4COC[C@@H]34)c2n1 (stereo partly drawn) [I-447] | < 0.2 | < 50 | < 50 |  |  |
| CNc1cc(Nc2cccnc2OC)nc2c(C(=O)N[C@H]3CCC[C@@H]3O)cnn12 [I-449, (S)—N-((1S,2S)-2-hydroxycyclopentyl)-5-((2-methoxypyridin-3-yl)amino)-7-(methylamino) pyrazolo[1,5-a]pyrimidine-3-carboxamide] | 0.2 to 1 | < 50 | < 50 |  |  |
| CNc1cc(-c2nn(C(C)C)c3ncccc23)nc2c(C(=O)N[C@H]3C[C@H]3F)cnn12 [I-451] | < 0.2 | < 50 | < 50 |  |  |
| CNc1cc(-c2nn(C3CCOC3)c3ncccc23)nc2c(C(=O)N[C@H]3C[C@H]3F)cnn12 (stereo partly drawn) [I-452] | < 0.2 | < 50 | < 50 |  |  |
| CNc1cc(Nc2cccn(CCOC3CC3)c2=O)nc2c(C(=O)NC3CC3)cnn12 [I-453] | 0.2 to 1 | < 50 | < 50 |  |  |
| CNc1cc(Nc2cccn(CCOC3CC3)c2=O)nc2c(C(=O)N[C@@H]3C[C@@H]3F)cnn12 [I-454] | < 0.2 | < 50 | < 50 |  |  |
| CNc1cc(-c2nn(CCN3CCOCC3)c3ncccc23)nc2c(C(=O)NC3CC3)cnn12 [I-455] | 1 to 10 | < 50 | < 50 |  |  |

Now from value to compound, other results behind:

| Kd [1] [nM] | inhibition at 10 µM (Tyk2 kinase domain (DH1)) [%] | inhibition at 10 µM (JAK2 kinase domain (JH1)) [%] | Compound | Tyk2 JH1% Inhibition @ 10 μM (Tyk2 kinase domain (DH1)) | JAK2 JH1% Inhibition @ 10 μM (JAK2 kinase domain (JH1)) |
| --- | --- | --- | --- | --- | --- |
| 0.2 to 1 | < 50 | < 50 | COc1ncccc1Nc1cc(NCCCN2CCOCC2)n2ncc(C(=O)NC3CC3)c2n1 [I-376, N-cyclopropyl-5-((2-methoxypyridin-3-yl)amino)-7-((3-morpholinopropyl)amino)pyrazolo[1,5-a]pyrimidine-3-carboxamide] |  |  |
| 0.2 to 1 | < 50 | < 50 | CNc1cc(Nc2cccc(N3CCCC3)n2)nc2c(C(=O)NC3CC3)cnn12 [I-382] |  |  |
| 0.2 to 1 | < 50 | < 50 | CNc1cc(Nc2cccn(C(C)C)c2=O)nc2c(C(=O)NC3CC3)cnn12 [I-394] |  |  |
| 0.2 to 1 | < 50 | < 50 | CNc1cc(Nc2cccnc2OC2CC2)nc2c(C(=O)N[C@H]3CC[C@H]3O)cnn12 [I-402] |  |  |
| 0.2 to 1 | < 50 | < 50 | CNc1cc(Nc2cccn([C@H]3CCC[C@@H]3OC)c2=O)nc2c(C(=O)NC3CC3)cnn12 [I-403] |  |  |
| 1 to 10 | < 50 | < 50 | CNc1cc(Nc2cccnc2OC2CC2)nc2c(C(=O)NCCC(C)(C)O)cnn12 [I-422, 5-((2-cyclopropoxypyridin-3-yl)amino)-N-(3-hydroxy-3-methylbutyl)-7-(methylamino)pyrazolo[1,5-a]pyrimidine-3-carboxamide] |  |  |
| 0.2 to 1 | < 50 | < 50 | CNc1cc(Nc2cccnc2OC)nc2c(C(=O)N[C@@H]3CC[C@@H]3O)cnn12 [I-430] |  |  |
| > 10 | < 50 | < 50 | CNc1cc(Nc2cc(F)cn(-c3nn(C)cc3C)c2=O)nc2c(C(=O)NC3CC3)cnn12 [I-431] |  |  |
| 0.2 to 1 |  |  | CNc1cc(Nc2cccn([C@H]3CCC[C@@H]3OC)c2=O)nc2c(C(=O)NC3CC3)cnn12 [I-436] | A (percent inhibition at 10 μM lower than 50) | A (percent inhibition at 10 μM lower than 50) |
| 0.2 to 1 | < 50 | < 50 | CNc1cc(-c2nn(C(C)C)c3ncccc23)nc2c(C(=O)NC3CC3)cnn12 [I-440] |  |  |
| 0.2 to 1 | < 50 | < 50 | CNc1cc(-c2nn(C3CCOC3)c3ncccc23)nc2c(C(=O)NC3CC3)cnn12 (stereo not drawn) [I-443] |  |  |
| < 0.2 | < 50 | < 50 | CNc1cc(Nc2cccn(-c3cnn(CC4CCOC4)c3)c2=O)nc2c(C(=O)NC3CC3)cnn12 (stereo not drawn) [I-444] |  |  |
| 0.2 to 1 | < 50 | < 50 | CNc1cc(Nc2cccnc2OC2CC2)nc2c(C(=O)N[C@H]3[C@@H]4COC[C@@H]43)cnn12 [I-446] |  |  |
